In the first assay the target is T1, GluN1/GluN2A NMDARs (Rattus norvegicus, UniProt P35439+Q00959).
T1 construct: expressed in transfected cells; host or cells: HEK293
T1 sequence (Q00959 23-1464, other chains not shown): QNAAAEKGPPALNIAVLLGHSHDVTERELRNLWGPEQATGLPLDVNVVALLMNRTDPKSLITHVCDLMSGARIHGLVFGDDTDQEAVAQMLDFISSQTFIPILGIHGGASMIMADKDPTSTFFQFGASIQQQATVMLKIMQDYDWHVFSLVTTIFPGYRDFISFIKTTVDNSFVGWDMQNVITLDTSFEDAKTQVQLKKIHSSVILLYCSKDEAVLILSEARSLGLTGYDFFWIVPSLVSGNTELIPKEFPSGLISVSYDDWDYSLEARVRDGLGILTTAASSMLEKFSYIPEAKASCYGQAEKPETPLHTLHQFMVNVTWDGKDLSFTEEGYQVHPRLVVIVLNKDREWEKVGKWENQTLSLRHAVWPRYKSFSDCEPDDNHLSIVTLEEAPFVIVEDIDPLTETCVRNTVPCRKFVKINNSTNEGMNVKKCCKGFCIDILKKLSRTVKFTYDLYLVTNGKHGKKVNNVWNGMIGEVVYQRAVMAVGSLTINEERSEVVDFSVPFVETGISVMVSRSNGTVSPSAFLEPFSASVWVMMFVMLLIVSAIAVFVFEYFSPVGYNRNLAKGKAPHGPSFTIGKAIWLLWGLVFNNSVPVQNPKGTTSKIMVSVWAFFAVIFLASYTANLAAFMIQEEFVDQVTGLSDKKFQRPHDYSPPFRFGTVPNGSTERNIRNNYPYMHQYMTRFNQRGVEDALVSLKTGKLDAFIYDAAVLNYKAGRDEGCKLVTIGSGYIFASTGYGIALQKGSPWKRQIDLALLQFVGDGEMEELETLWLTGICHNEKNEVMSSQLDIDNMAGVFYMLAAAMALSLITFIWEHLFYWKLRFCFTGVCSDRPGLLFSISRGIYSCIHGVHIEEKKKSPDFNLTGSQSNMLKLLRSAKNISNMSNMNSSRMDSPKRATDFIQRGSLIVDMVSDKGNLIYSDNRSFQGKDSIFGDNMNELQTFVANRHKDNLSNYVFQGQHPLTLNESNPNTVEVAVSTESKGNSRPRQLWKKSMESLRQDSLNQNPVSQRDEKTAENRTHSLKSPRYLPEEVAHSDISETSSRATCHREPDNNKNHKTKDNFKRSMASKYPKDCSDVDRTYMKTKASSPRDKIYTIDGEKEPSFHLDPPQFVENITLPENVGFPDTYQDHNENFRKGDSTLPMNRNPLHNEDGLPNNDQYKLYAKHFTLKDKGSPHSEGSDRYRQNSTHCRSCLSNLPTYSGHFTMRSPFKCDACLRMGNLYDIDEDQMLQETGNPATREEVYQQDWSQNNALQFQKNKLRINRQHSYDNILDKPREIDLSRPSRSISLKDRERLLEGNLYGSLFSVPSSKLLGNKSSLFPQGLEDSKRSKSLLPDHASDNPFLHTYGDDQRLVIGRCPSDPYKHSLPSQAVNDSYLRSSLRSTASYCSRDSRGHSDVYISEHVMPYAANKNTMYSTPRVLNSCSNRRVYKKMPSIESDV
In words: Whole-cell patch clamp recordings in HEK293 cells transfected with GluN1/GluN2A. The format is cell-based. The note with it: Table 1; positive modulation of GluN1/GluN2A NMDARs; concentration not given. Here is the method: Cells were transfected with a combination of pcDNA3-CMV expression vectors, each of which expressed one of the rat recombinant (GluN2AWT, GluN1WT, GluN2BWT) subunits. The sequences of all plasmids were confirmed by automated DNA sequencing. Human Embryonic Kidney 293 (HEK293 cells) were cultured in Dulbecco's Modified Eagle's Medium (DMEM) (Invitrogen) supplemented with 10% fetal bovine serum (FBS). When HEK293 cells achieved 90% confluence, plasmids of either GluN1 & GluN2A or GluN1 & GluN2B were co-transfected into the cells using Lipofectamine 2000 (Invitrogen, 11668019) according to manufacturer's instructions. HEK293 cells were then maintained in the 37° C. incubator with […] and 5% CO2 for 48 hrs before being used in experiments. The transfection ratios for the NMDAR subunit combinations were all 1:1 (GluN1/GluN2A or GluN1/GluN2B).
Whole cell patch-clamp recordings were performed under voltage-clamp mode using an Axopatch 200B or 1D patch-clamp amplifier (Molecular Devices). Whole-cell currents were recorded at a holding potential of −60 mV unless indicated elsewhere, and signals were filtered at 2 kHz, digitized at 10 kHz (Digidata 1322A). Recording pipettes (3-5 MΩ) were filled with intracellular solution containing (mM): CsCl 140, HEPES 10, Mg-ATP 4, QX-314 5, pH 7.20; osmolarity, 290-295 mOsm. BAPTA (10 mM) was added in the intracellular solution (unless otherwise specified). The coverslips were continuously superfused with extracellular solution containing (mM): NaCl 140, KCl 5.4, HEPES 10, CaCl2 1.3, glucose 20, pH 7.4; osmolarity, 305-315 mOsm. NMDA-induced currents were applied by NMDA through perfusion fast-step (Warner Instruments). With perfusion fast-step system, NMDA application was achieved by using a two-square barrel glass tubing and depending on the age of the cultured neurons, CNQX (10 μM), TTX (0.5 μM) or BIC (10 μM) were added in the extracellular solution to minimize the activation of ionotropic glutamate receptors and voltage-gated sodium channels, respectively. All experiments were performed at room temperature. Recordings from at least six HEK293 cells/neurons were performed for all active compounds. Data were pooled among HEK293 cells or primary neurons and composite dose-response data were fitted by the equation Percentage Response=100×Relative Efficacy/[1+(EC50/Concentration)nH], where EC50 is the concentration of agonist that produces a half-maximal response, relative efficacy is the response at maximally effective concentration relative to the maximal response of glutamate, and nH is the Hill slope.
GluN1/GluN2A NMDAR subtypes are an attractive target for positive allosteric modulation. The present inventors employed in silico computational drug discovery methods to conduct a virtual screen of purchasable lead-like compounds from the ZINC database (Irwin, J., et al. Abstr Pap Am Chem Soc (2005) 230:U1009) and some synthetic compounds to identify potential GluN1/GluN2A-NMDAR modulators. The in silico methods included large-scale docking against the interstice interface of the GluN1/GluN2A heterodimer and consensus scoring to select compounds for empirical testing. Candidate compounds were further screened by using GluN1/GluN2A transiently transfected in human embryonic kidney (HEK293) cells and tested by whole-cell patch clamp recordings.
The inventors used transiently transfected HEK293 cells expressing either GluN1/GluN2A or GluN1/GluN2B NMDARs and tested by whole-cell voltage patch clamp recordings to see whether selected compounds were controlling the subtype selectivity profile of the drugs.
Whole-cell patch clamp recordings were performed to measure glutamate evoked currents with chloride-based pipette solutions at a holding potential of −60 mV.
On the technique in general: The patch-clamp technique gives a direct electrical read-out from membranes.
`C=CCc1cc(/C=N/NC(=O)c2ccccc2Br)c(O)c(OC)c1` [Npam03, (E)-N′-(5-allyl-2-hydroxy-3-methoxybenzylidene)-2-bromobenzohydrazide]: the “Normalized Potentiation” value is 97.62 ± 6.03%.
Same read-out and setting: in the case of `CCOc1cc(Br)c(Br)c(/C=N/NC(=O)c2ccccc2C)c1O` [Npam04C, (E)-N′-(2,3-dibromo-5-ethoxy-6-hydroxybenzylidene)-2-methylbenzohydrazide] it was 292.08 ± 44.70%.
On the same count and under the same terms, in the case of `COc1cc(Br)c(Br)c(/C=N/NC(=O)c2ccccc2Br)c1O` [Npam05, (E)-2-bromo-N′-(2,3-dibromo-6-hydroxy-5-methoxybenzylidene)benzohydrazide] it was 196.54 ± 21.20%.
Same read-out and setting: the same measure for `CCOc1cc(Cl)c(Cl)c(/C=N/NC(=O)c2cncc(Br)c2)c1O` [Npam06, (E)-5-bromo-N′-(2,3-dichloro-5-ethoxy-6-hydroxybenzylidene)nicotinohydrazide]: 201.19 ± 14.63%; for `CCOc1cccc(/C=N/NC(=O)c2cccc(Cl)c2C)c1O` [Npam07, (E)-3-chloro-N′-(3-ethoxy-2-hydroxybenzylidene)-2-methylbenzohydrazide]: 103.77 ± 11.00%; for `CCOc1cc(Cl)c(Cl)c(/C=N/NC(=O)NC(=O)COc2c(C)ccc(C)c2C)c1O` [Npam08, (E)-2-(2,3-dichloro-5-ethoxy-6-hydroxybenzylidene)-N-(2-(2,3,6-trimethylphenoxy)acetyl)hydrazinecarboxamide]: 362.76 ± 38.44%.
Regarding `CCOc1cc(Br)c(Br)c(/C=N/NC(=O)c2cccc(Cl)c2C)c1O` [Npam10, 3-chloro-N′-[(1E)-(2,3-dibromo-5-ethoxy-6-hydroxyphenyl)methylidene]-2-methylbenzohydrazide], the “Normalized Potentiation” value was 206.28 ± 33.62%.
Still for that read-out and setting: the same measure for `CCOc1cc(Br)c(Br)c(/C=N/NC(=O)c2ccccc2OC)c1O` [Npam12, (E)-N′-(2,3-dibromo-5-ethoxy-6-hydroxybenzylidene)-2-methoxybenzohydrazide]: 118.15 ± 35.54%; for `COc1cc(Br)c(Br)c(/C=N/NC(=O)c2ccc(Cl)cc2)c1O` [Npam13, (E)-4-chloro-N′-(2,3-dibromo-6-hydroxy-5-methoxybenzylidene)benzohydrazide]: 195.38 ± 40.11%; for `CCOc1cc(Br)cc(/C=N/NC(=O)c2cccc(C)c2C)c1O` [Npam15, (E)-N′-(5-bromo-3-ethoxy-2-hydroxybenzylidene)-2,3-dimethylbenzohydrazide]: 89.84 ± 27.86%.
As to `O=C(N/N=C/c1cccc(O)c1O)c1cccc(Br)c1` [Npam16, (E)-3-bromo-N′-(2,3-dihydroxybenzylidene)benzohydrazide], the “Normalized Potentiation” value stood at 36.90 ± 5.62%.
Same read-out and setting: the same measure for `CCOc1cc(Cl)c(Cl)c(/C=N/NC(=O)c2ccccc2C)c1O` [Npam17, (E)-N′-(2,3-dichloro-5-ethoxy-6-hydroxybenzylidene)-2-methylbenzohydrazide]: 130.54 ± 13.63%; for `CCOc1cc(Cl)cc(/C=N/NC(=O)c2ccccc2Br)c1O` [Npam18, (E)-2-bromo-N′-(5-chloro-3-ethoxy-2-hydroxybenzylidene)benzohydrazide]: 213.58 ± 43.58%; for `COc1cc(Cl)cc(/C=N/NC(=O)c2ccccc2Br)c1O` [Npam20, (E)-2-bromo-N′-(5-chloro-2-hydroxy-3-methoxybenzylidene)benzohydrazide]: 131.85 ± 23.20%.
On the same count and under the same terms, the same measure for `CCOc1cc(Br)cc(/C=N/NC(=O)c2ccccc2N)c1O` [Npam21, (E)-2-amino-N′-(5-bromo-3-ethoxy-2-hydroxybenzylidene)benzohydrazide]: 37.27 ± 4.64%; for `CCOc1cc(Br)cc(/C=N/NC(=O)c2ccc(F)cc2)c1O` [Npam22, (E)-N′-(5-bromo-3-ethoxy-2-hydroxybenzylidene)-4-fluorobenzohydrazide]: 59.83 ± 7.55%; for `CCOc1cc(Br)cc(/C=N/NC(=O)c2ccc3c(c2)OCCO3)c1O` [Npam23, (E)-N′-(5-bromo-3-ethoxy-2-hydroxybenzylidene)-2,3-dihydrobenzo[b][1,4]dioxine-6-carbohydrazide]: 87.00 ± 6.48%.
Regarding `CCOc1cc([N+](=O)[O-])cc(/C=N/NC(=O)c2cc(Cl)ccc2O)c1O` [Npam24, (E)-5-chloro-N′-(3-ethoxy-2-hydroxy-5-nitrobenzylidene)-2-hydroxybenzohydrazide], the “Normalized Potentiation” value came to 61.57 ± 8.15%.
Still for that read-out and setting: the same measure for `COc1cc(Br)cc(/C=N/NC(=O)c2ccc(NC(=O)c3ccc(C)cc3)cc2)c1O` [Npam25, (E)-N-(4-(2-(5-bromo-2-hydroxy-3-methoxybenzylidene)hydrazinecarbonyl)phenyl)-4-methylbenzamide]: −14.32 ± 2.20%; for `O=C(N/N=C/c1cc(Cl)cc(Cl)c1O)c1ccccc1Br` [Npam26, (E)-2-bromo-N′-(3,5-dichloro-2-hydroxybenzylidene)benzohydrazide]: 175.08 ± 14.42%.
On the same count and under the same terms, the same measure for `CCOc1cc(/C=N/NC(=O)c2ccccc2Br)cc(Br)c1O` [Npam27, (E)-2-bromo-N′-(3-bromo-5-ethoxy-4-hydroxybenzylidene)benzohydrazide]: −0.278 ± 5.62%; for `CCOc1cc(Br)cc(/C=N/NC(=O)c2ccncc2)c1O` [Npam28, N′-[(1E)-(5-bromo-3-ethoxy-2-hydroxyphenyl)methylidene]pyridine-4-carbohydrazide]: 30.25 ± 2.87%.
Regarding `COc1cc(Cl)cc(/C=N/NC(=O)c2ccccc2Br)c1O` [Npam29, (E)-2-bromo-N′-(5-chloro-2-hydroxy-3-methoxybenzylidene)benzohydrazide], the “Normalized Potentiation” value worked out at 120.68 ± 9.61%.
Same read-out and setting: in the case of `CCOc1cccc(/C=N/NC(=O)c2ccccc2Br)c1O` [Npam31, 2-bromo-N′-[(1E)-(3-ethoxy-2-hydroxyphenyl)methylidene]benzohydrazide] it was 15.11 ± 8.78%.
For `CCOc1cc(Cl)c(Cl)c(/C=N/NC(=O)c2cccc(Br)c2)c1O` [Npam32, (E)-3-bromo-N′-(2,3-dichloro-5-ethoxy-6-hydroxybenzylidene)benzohydrazide], the “Normalized Potentiation” value came to 374.58 ± 19.07%.
Same read-out and setting: in the case of `Cc1ccccc1C(=O)N/N=C/c1cccc(O)c1O` [Npam34, (E)-N′-(2,3-dihydroxybenzylidene)-2-methylbenzohydrazide] it was −12.47 ± 2.06%; in that of `COc1cc(Br)c(Br)c(/C=N/NC(=O)c2ccc(C(C)(C)C)cc2)c1O` [Npam35, (E)-4-(tert-butyl)-N′-(2,3-dibromo-6-hydroxy-5-methoxybenzylidene)benzohydrazide], 512.24 ± 28.67%; in that of `O=C(N/N=C/c1cccc(O)c1O)c1ccc(Cl)cc1Cl` [Npam36, (E)-2,4-dichloro-N′-(2,3-dihydroxybenzylidene)benzohydrazide], 4.02 ± 4.79%.
Still for that read-out and setting: in the case of `COc1cc(Br)c(Br)c(/C=N/NC(=O)c2cccc(F)c2)c1O` [Npam37, (E)-N′-(2,3-dibromo-6-hydroxy-5-methoxybenzylidene)-3-fluorobenzohydrazide] it was 435.94 ± 156.01%.

Staying with this assay, now noted: Table 1; potentiation; read-out: EC50.
A word on the EC50: it is the concentration that produces a half-maximal response. As for `CCOc1cc(Cl)c(Cl)c(/C=N/NC(=O)c2cccc(Br)c2)c1O` [Npam32, (E)-3-bromo-N′-(2,3-dichloro-5-ethoxy-6-hydroxybenzylidene)benzohydrazide], the EC50 stood at 250 nM.
For `COc1cc(Br)c(Br)c(/C=N/NC(=O)c2ccc(C(C)(C)C)cc2)c1O` [Npam35, (E)-4-(tert-butyl)-N′-(2,3-dibromo-6-hydroxy-5-methoxybenzylidene)benzohydrazide], the EC50 was determined as 220 nM.
